Laboratory results published in patent US10441562B2, “Aromatic farnesyl compound and application thereof” (INSTITUTE OF MICROBIOLOGY, CHINESE ACADEMY OF SCIENCES, priority 2015, dated 2019).

Target: T1, dipeptidyl peptidase-4 (Homo sapiens, UniProt P27487)
T1 construct: purchased
Experiment: dipeptidyl peptidase-4 inhibitory activity test in vitro (DPP-4 inhibitor screening kit)
Type: biochemical
Excerpt: The above compounds are detected by DPP-4 inhibitor screening kit.

T1 sequence (P27487 whole entry, species assumed): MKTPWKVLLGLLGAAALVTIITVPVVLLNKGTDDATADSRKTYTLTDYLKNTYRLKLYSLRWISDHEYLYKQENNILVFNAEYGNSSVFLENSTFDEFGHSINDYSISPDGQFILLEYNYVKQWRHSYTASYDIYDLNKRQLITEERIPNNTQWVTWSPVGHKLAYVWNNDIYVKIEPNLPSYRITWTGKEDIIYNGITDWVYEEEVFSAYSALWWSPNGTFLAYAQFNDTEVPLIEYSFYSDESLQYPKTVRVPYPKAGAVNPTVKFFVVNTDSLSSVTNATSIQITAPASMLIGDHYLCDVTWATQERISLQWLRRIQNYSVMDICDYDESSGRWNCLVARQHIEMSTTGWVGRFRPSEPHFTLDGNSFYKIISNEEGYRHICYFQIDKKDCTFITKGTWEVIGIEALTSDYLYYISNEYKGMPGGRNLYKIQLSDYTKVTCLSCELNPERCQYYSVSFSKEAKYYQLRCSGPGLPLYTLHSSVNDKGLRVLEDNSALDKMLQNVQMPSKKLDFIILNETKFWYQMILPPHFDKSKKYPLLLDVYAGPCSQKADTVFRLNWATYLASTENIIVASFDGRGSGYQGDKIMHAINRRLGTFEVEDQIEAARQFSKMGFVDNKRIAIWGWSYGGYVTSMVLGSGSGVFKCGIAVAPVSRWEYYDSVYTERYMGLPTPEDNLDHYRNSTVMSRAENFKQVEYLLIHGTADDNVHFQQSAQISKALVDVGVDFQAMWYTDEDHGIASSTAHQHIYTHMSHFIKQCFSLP

Row | Compound | IC50
1 | CC(C)=CCC/C(C)=C/CCC1=C[C@H](c2cc(O)ccc2O)OC1=O [S13, (R,E)-5-(2,5-dihydroxyphenyl)-3-(4,8-dimethylnona-3,7-dien-1-yl)furan-2(5H)-one] | 4.5 µM
2 | CC(C)=CCC/C(C)=C/CCC1=C[C@@H](c2cc(O)ccc2O)OC1=O [S28, (S,E)-5-(2,5-dihydroxyphenyl)-3-(4,8-dimethylnona-3,7-dien-1-yl)furan-2(5H)-one] | 6.8 µM
